# Results published in patent US11427528B2 (Zhejiang University of Technology, priority 2016, dated 2022).
# “Also recorded” adds a separate entry of the source. Where two headings read alike, the source gives them in different places.
# What was measured:
# [1] = Stability experiment, light exposure (XRPD); type: physicochemical; settings: 4500±500 lx, 25° C., open petri dish, XRPD compared with 0th day
# Description: (§1) The instrument used for collecting X-ray powder diffraction (XRPD) patterns is Bruker D8 Advance diffractometer. The samples are tested at room temperature under the following conditions: 2θ scan range, 3-40°; step size, 0.02°/step; speed, 0.2 s/step.
# (§2) They were placed at 4500±500 lx light exposure, and 90±5% RH humidity chamber at 25° C., respectively. The XRPD results of the 5th day and 10th day were compared with that of the 0th day.
# [2] = Stability experiment, high humidity (XRPD); type: physicochemical; settings: 90±5% RH, 25° C., open petri dish, XRPD compared with 0th day
# Description: as §1, §2
# [3] = Grinding test in ball mill (XRPD); type: physicochemical; settings: 20 Hz, 100 mg, XRPD compared with unground sample
# Description: as §1
# [4] = Storage stability at room temperature; type: physicochemical; settings: 3 months
# [5] = cited from earlier work
Stability at room temperature [4],Compound,Crystalline form after light exposure for 10 days [1],Crystalline form after high humidity for 10 days [2],Crystalline form after grinding for 10 min [3],Form change at room temperature ([5]; in one day at room temperature),Form change at room temperature ([5]; after two days at room temperature),Form change after mechanical grinding ([5]; mechanical grinding)
,"CC(C)OC(=O)C(C)(C)Oc1ccc(C(=O)c2ccc(Cl)cc2)cc1 [Form I, reference compound]",Form I,Form I,Form I,,,
remains stable,CC(C)OC(=O)C(C)(C)Oc1ccc(C(=O)c2ccc(Cl)cc2)cc1 [Form IV],does not change its crystalline form; also recorded: Form IV,does not change its crystalline form; also recorded: Form IV,does not change its crystalline form; also recorded: Form IV,,,
,CC(C)OC(=O)C(C)(C)Oc1ccc(C(=O)c2ccc(Cl)cc2)cc1 [Form III],,,,transformed to Form II and Form I,,
,CC(C)OC(=O)C(C)(C)Oc1ccc(C(=O)c2ccc(Cl)cc2)cc1 [Form II],,,,,transformed to Form I,transformed to Form I
